The record followed here is patent publication US20260226039A1, “INHIBITORS OF SOLVENT FRONT MUTATED RET KINASE” (Purdue Research Foundation, priority 2023, published 2026).

Where a chain is given by its changes, count along the chain named. In brackets after ≈: the same amount, converted by molar mass.

Data set [1] addresses T1, KIF5B-RET G810V (Homo sapiens, UniProt P07949, G810V).
T1 construct: KIF5B (fusion partner); expressed in transfected cells; host or cells: BaF3 (lentiviral vector); the other entry of the earlier key: KIF5B (P33176, Kinesin-1 heavy chain)
T1 sequence (P07949 713-1063 G810V limits assumed): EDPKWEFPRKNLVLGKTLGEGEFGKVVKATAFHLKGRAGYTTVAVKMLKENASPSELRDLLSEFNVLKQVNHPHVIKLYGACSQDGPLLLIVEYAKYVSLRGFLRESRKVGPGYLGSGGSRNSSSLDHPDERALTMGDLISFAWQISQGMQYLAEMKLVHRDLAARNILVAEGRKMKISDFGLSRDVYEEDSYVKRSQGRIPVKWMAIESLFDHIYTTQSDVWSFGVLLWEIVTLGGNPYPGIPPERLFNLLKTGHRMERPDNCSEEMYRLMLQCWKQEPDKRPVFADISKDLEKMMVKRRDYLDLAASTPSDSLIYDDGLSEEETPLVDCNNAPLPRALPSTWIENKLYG
The data set is described as follows: Cell viability assay (CellTiter-Glo) in BaF3 cells expressing KIF5B-RET G810V. In kind it is cell-based. As to conditions: B/KR mutant cell line G810V; read-out: IC50 of RET mutants, G810V. An excerpt: (§1) KIF5B-RET G810D and G810V mutations were generated by PCR-based mutagenesis with primers containing the desired mutations. […] Drug screening and ICso data of BaF3/KR and mutation cells were from 2 or more experiments performed in 3 technical replicates.
On the technique in general: In ATP-based viability assays light output follows the ATP content of the culture.

For data set [2], the target named is T2, KIF5B-RET G810R (Homo sapiens, UniProt P07949, G810R).
T2 construct: KIF5B (fusion partner); expressed in transfected cells; host or cells: BaF3; the other entry of the earlier key: KIF5B (P33176, Kinesin-1 heavy chain)
T2 sequence (P07949 713-1063 G810R limits assumed): T1 sequence (P07949 713-1063 G810V limits assumed) with V98R
The data set is described as follows: Cell viability assay (CellTiter-Glo) in BaF3 cells expressing KIF5B-RET G810R. As to conditions: B/KR mutant cell line G810R; read-out: IC50 of RET mutants, G810R. It counts as cell-based.
Source text: as §1

Data set [3] has as its target T3, KIF5B-RET G810C (Homo sapiens, UniProt P07949, G810C).
T3 construct: KIF5B (fusion partner); expressed in transfected cells; host or cells: BaF3; the other entry of the earlier key: KIF5B (P33176, Kinesin-1 heavy chain)
T3 sequence (P07949 713-1063 G810C limits assumed): T1 sequence (P07949 713-1063 G810V limits assumed) with V98C
The data set is described as follows: Cell viability assay (CellTiter-Glo) in BaF3 cells expressing KIF5B-RET G810C. In kind it is cell-based. As to conditions: B/KR mutant cell line G810C; read-out: IC50 of RET mutants, G810C.
Source text: as §1

Data set [4] has as its target T4, KIF5B-RET V804M (Homo sapiens, UniProt P07949, V804M).
T4 construct: KIF5B (fusion partner); expressed in transfected cells; host or cells: BaF3; the other entry of the earlier key: KIF5B (P33176, Kinesin-1 heavy chain)
T4 sequence (P07949 713-1063 V804M limits assumed): T1 sequence (P07949 713-1063 G810V limits assumed) with V92M, V98G
The data set is described as follows: Cell viability assay (CellTiter-Glo) in BaF3 cells expressing KIF5B-RET V804M. It counts as cell-based. As to conditions: B/KR mutant cell line V804M; read-out: IC50 of RET mutants, V804M.
Source text: as §1

The target in data set [5] is T5, KIF5B-RET G810A (Homo sapiens, UniProt P07949, G810A).
T5 construct: KIF5B (fusion partner); expressed in transfected cells; host or cells: BaF3; the other entry of the earlier key: KIF5B (P33176, Kinesin-1 heavy chain)
T5 sequence (P07949 713-1063 G810A limits assumed): T1 sequence (P07949 713-1063 G810V limits assumed) with V98A
The data set is described as follows: Cell viability assay (CellTiter-Glo) in BaF3 cells expressing KIF5B-RET G810A. In kind it is cell-based. Particulars: B/KR mutant cell line G810A; read-out: IC50 of RET mutants, G810A.
Source text: as §1

In data set [6] the target is T6, KIF5B-RET G810S (Homo sapiens, UniProt P07949, G810S).
T6 construct: KIF5B (fusion partner); expressed in transfected cells; host or cells: BaF3; the other entry of the earlier key: KIF5B (P33176, Kinesin-1 heavy chain)
T6 sequence (P07949 713-1063 G810S limits assumed): T1 sequence (P07949 713-1063 G810V limits assumed) with V98S
The data set is described as follows: Cell viability assay (CellTiter-Glo) in BaF3 cells expressing KIF5B-RET G810S. In kind it is cell-based. As to conditions: B/KR mutant cell line G810S; read-out: IC50 of RET mutants, G810S.
Source text: as §1

Data set [7] addresses T7, KIF5B-RET G810D (Homo sapiens, UniProt P07949, G810D).
T7 construct: KIF5B (fusion partner); expressed in transfected cells; host or cells: BaF3 (lentiviral vector); the other entry of the earlier key: KIF5B (P33176, Kinesin-1 heavy chain)
T7 sequence (P07949 713-1063 G810D limits assumed): T1 sequence (P07949 713-1063 G810V limits assumed) with V98D
The data set is described as follows: Cell viability assay (CellTiter-Glo) in BaF3 cells expressing KIF5B-RET G810D. In kind it is cell-based. Particulars: B/KR mutant cell line G810D; read-out: IC50 of RET mutants, G810D.
Source text: as §1

Data set [8] addresses T8, KIF5B-RET WT (Homo sapiens, UniProt P07949).
T8 construct: KIF5B (fusion partner); expressed in transfected cells; host or cells: BaF3; the other entry of the earlier key: KIF5B (P33176, Kinesin-1 heavy chain)
T8 sequence (P07949 with tags, fused parts or gaps): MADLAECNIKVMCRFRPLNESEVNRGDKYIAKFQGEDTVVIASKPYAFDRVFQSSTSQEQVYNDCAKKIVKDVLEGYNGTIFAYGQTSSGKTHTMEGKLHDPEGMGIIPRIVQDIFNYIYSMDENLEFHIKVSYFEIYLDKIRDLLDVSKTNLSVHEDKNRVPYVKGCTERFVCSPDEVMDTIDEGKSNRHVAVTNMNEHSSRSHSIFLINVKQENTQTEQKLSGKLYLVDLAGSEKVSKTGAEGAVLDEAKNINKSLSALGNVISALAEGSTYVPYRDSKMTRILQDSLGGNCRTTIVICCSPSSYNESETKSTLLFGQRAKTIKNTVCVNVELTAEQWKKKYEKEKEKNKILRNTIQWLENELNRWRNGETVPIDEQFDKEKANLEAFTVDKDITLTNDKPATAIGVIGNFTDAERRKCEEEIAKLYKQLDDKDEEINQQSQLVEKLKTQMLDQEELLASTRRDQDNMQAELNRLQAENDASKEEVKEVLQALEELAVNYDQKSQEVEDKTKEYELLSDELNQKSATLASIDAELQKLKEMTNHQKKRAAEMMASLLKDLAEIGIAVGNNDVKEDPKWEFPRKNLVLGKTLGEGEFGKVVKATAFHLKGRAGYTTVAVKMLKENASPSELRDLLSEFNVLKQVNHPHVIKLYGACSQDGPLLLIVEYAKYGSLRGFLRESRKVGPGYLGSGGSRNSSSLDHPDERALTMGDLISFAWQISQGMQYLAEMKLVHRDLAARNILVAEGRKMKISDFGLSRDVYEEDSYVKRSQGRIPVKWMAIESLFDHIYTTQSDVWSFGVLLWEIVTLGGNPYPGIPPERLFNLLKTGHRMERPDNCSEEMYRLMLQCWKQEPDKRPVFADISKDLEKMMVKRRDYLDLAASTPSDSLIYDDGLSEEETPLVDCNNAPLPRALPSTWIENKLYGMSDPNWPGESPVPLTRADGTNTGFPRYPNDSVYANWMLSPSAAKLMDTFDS
The data set is described as follows: Cell viability assay (CellTiter-Glo) in BaF3 cells expressing KIF5B-RET (B/KR), WT. In kind it is cell-based. As to conditions: B/KR cell line, read-out: IC50 of RET mutants, WT.
Source text: as §1

A short description of data set [9]: Solubility at pH 6.8. In kind it is physicochemical.
The target of data set [10] is hERG (Homo sapiens, UniProt Q12809). The data set is described as follows: hERG inhibition. In kind it is biochemical. In general terms: The hERG channel carries a current that helps repolarise heart muscle cells.
Chain of hERG (Q12809 whole entry): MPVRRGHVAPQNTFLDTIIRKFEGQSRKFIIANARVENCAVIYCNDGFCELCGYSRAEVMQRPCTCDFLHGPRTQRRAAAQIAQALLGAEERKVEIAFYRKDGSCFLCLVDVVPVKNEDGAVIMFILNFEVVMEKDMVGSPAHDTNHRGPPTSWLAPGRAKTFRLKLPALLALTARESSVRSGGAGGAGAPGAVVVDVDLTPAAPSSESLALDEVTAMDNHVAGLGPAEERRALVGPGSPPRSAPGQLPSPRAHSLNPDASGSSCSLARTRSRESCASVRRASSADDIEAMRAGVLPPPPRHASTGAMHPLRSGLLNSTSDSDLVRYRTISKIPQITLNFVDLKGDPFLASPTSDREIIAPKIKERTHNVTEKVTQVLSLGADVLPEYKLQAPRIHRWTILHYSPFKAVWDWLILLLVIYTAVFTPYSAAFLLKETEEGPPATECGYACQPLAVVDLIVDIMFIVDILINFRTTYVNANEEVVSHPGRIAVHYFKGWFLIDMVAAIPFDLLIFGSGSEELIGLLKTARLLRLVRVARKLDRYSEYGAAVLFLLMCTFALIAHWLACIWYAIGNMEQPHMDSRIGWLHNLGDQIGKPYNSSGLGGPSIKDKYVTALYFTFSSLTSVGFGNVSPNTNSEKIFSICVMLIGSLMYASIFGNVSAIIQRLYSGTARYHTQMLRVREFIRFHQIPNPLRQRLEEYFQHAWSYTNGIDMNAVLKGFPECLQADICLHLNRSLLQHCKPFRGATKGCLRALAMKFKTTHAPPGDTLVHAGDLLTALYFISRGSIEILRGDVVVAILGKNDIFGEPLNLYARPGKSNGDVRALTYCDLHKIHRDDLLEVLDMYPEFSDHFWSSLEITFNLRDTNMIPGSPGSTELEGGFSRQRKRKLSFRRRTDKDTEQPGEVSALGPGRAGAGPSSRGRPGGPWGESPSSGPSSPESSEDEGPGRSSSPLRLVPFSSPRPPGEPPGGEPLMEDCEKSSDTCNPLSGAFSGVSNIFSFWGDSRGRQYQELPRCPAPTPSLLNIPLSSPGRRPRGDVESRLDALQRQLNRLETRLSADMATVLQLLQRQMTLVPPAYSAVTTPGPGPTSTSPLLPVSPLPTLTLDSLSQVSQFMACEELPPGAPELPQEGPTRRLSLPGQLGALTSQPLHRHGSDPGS
A short description of data set [11]: Protein binding (human serum). In kind it is in vitro ADME.
The test system of data set [12] is B/KR(G810C) CDX tumors. The data set is described as follows: In vivo activity on B/KR(G810C) CDX tumors in mice. Particulars: daily oral gavage. On the procedure: Mice bearing B/KR(G810C) CDX tumors were treated with the test compounds at the indicated doses by daily oral gavage. Tumor dimensions were measured with a caliper, and tumor sizes were estimated using the Formula: tumor size=(Length×width×width)/2. The data shown are the mean±sd.
BaF3/KR(G810C) cells were tested free of 20 mouse pathogens (IDEXX, Columbia, MO) and mycoplasma. Cells (1×10^7 cells/0.1 ml/each) were inoculated subcutaneously into the right flank of approximately 5-week old female SHO mice (Charles River, Wilmington, MA). After tumor formation, mice (6 mice/group) were treated with vehicle or test compounds at the indicated doses by oral gavage once a day. Tumor size and animal body weight were measured as described. Statistical analysis was performed using the unpaired Mann-Whitney test.

Take `CN1CCN(Cc2ccc(NC(=O)c3cncc(C#Cc4cnc5[nH]ncc5c4)c3)cc2C(F)(F)F)CC1` [Example 1, 5-((1H-Pyrazolo[3,4-b]pyridin-5-yl)ethynyl)-N-(4-((4-methylpiperazin-1-yl)methyl)-3-(trifluoromethyl)phenyl)nicotinamide]: the IC50 in [1] was determined as 4.1 ± 0.3 nM; in data set [2], 24.5 ± 0.79 nM; in data set [3], 11.4 ± 0.32 nM; in data set [4] it was 14.1 ± 0.54 nM; in [5], 1.56 ± 0.07 nM; in [6] it was 7.76 ± 0.33 nM. Also, the IC50 was 5.21 ± 0.36 nM in [7] and 1.7 ± 0.08 nM in [8].

With `CN1CCN(Cc2ccc(NC(=O)c3cncc(C#Cc4cnc(N)nc4)c3)cc2C(F)(F)F)CC1` [Example 2, 5-((2-Aminopyrimidin-5-yl)ethynyl)-N-(4-((4-methylpiperazin-1-yl)methyl)-3-(trifluoromethyl)phenyl)nicotinamide], the solubility in [9] was 117 µM (≈ 58 µg/mL). Also, the IC50 in data set [1] worked out at 8.34 ± 0.36 nM; in data set [2] it was 46.8 ± 1.11 nM; in data set [3] it was 12.2 ± 0.63 nM; in [4], 20.3 ± 1.09 nM; in data set [5], 3.89 ± 0.07 nM; in [10], 23000 nM. In addition, the IC50 came to 8.02 ± 0.21 nM in [6], 1.47 ± 0.05 nM in [7] and 3.49 ± 0.16 nM in [8]. The protein-bound in data set [11] turned out to be 94%. Moreover, the “effect on B/KR(G810C) CDX tumors” value in data set [12] (25 mg/Kg) was “tumor regression”.

`CN1CCN(Cc2ccc(NC(=O)c3cncc(C#Cc4cnc(N)c5ncccc45)c3)cc2C(F)(F)F)CC1` [HSN608, reference compound] registered a solubility in [9] of 0.07 µM (≈ 0.0382 µg/mL). This compound returned a protein-bound in data set [11] of 99%. Further, in data set [12] (50 mg/Kg), the “effect on B/KR(G810C) CDX tumors” value is “tumor regression”.

As a reminder, the IC50 is the concentration that gives 50% inhibition. As a reminder, the solubility is how much of the substance goes into solution per volume. High values mean much dissolved substance, low ones little dissolved substance.
